Assays:
[1] = target: DPP1 in HL-60 cells (Homo sapiens (Human), UniProt P53634); experiment: DPP1 cell single-point percent inhibition testing (HL-60 cells, H-Gly-Phe-AFC substrate); assay type: cell-based; conditions: read-out: DPP1 cell % inhibition @ 5 nM, 5 nM compound, 100 μM H-Gly-Phe-AFC, 60 min pre-incubation at 37° C.
Protocol: HL-60 cells (ATCC; Manassas, VA) were maintained in RPMI-1640 supplemented with 20% heat-inactivated FBS and 1× Antibiotic Antimycotic (Cytiva; Marlborough, MA). Media was changed every three to four days and cells were not allowed to exceed 1×10^6 cells per mL. Prior to assay, cells were collected by centrifugation at 500 rcf for 3 minutes, resuspended in RPMI (with no additional supplements) and counted. Cells were diluted in RPMI to a concentration of 5×10^5 live cells per mL and transferred to black 96-well plates for assay, 60 μL per well. Test articles were diluted to 25 nM in RPMI plus 0.5% DMSO, and 20 μL was added to each assay well. Compound was allowed to pre-incubate with cells with gentle shaking at 100 rpm for 60 minutes at 37° C. in a cell culture incubator maintained at 5% CO2, after which 20 μL of 500 μM H-Gly-Phe-AFC cell-permeable substrate (MP Biomedicals; Solon, OH) in RPMI was added to each well, giving final compound concentration of 5 nM, a final substrate concentration of 100 μM and a final DMSO concentration of 0.1%. Plates were returned to the incubator with shaking at 100 rpm for 30 minutes, after which fluorescence was measured at Excitation/Emission 400/505 nm. Percent Inhibition was calculated from RFU values by first subtracting background values (wells in which RPMI was substituted for cells) from each well, and then subtracting background-subtracted RFU derived from wells that received a final concentration of 10 μM brensocatib. This value represents the non-specific substrate cleavage from the HL-60 cells, and the remaining RFU should theoretically be solely the contribution of DPP1 enzyme activity. The final percent inhibition value was calculated for each test article based on remaining RFU compared to RFU from wells that received only vehicle control.

[2] = target: human DPP1 enzyme (Homo sapiens (Human), UniProt P53634); experiment: Human DPP1 enzyme single-point percent inhibition testing (HL-60 lysate, H-Gly-Arg-AMC substrate); assay type: biochemical; conditions: read-out: human DPP1 enzyme % inhibition @ 10 nM, 10 nM compound, 400 μM H-Gly-Arg-AMC, 10 min pre-incubation at 37° C.
Protocol: A crude lysate of HL-60 cells (ATCC; Manassas, VA) was used as a source of human DPP1 enzyme in the assay. Lysate was prepared in 1% Triton X-100 in PBS at a concentration of 20,000 live cells per […] of lysis buffer and was centrifuged at 16,000 rcf for 10 minutes at 4° C., after which supernatant was collected and flash-frozen in liquid nitrogen. Test articles were applied to human DPP1 enzyme in Assay Buffer (25 mM MES pH 6.0, 50 mM NaCl, 5 mM DTT) in a total reaction volume of 125 μL. 25 μL of compound diluted to 50 nM in Assay Buffer plus 5% DMSO was first added to 50 μL of HL-60 lysate diluted to contain a DPP1 enzyme concentration of roughly 1 ng/μL and allowed to pre-incubate for 10 minutes at 37° C. after which 50 μL of 1000 μM H-Gly-Arg-AMC substrate (Bachem; St. Torrance, CA) was added, giving final compound concentration of 10 nM, a final substrate concentration of 400 μM and a final DMSO concentration of 1%. Substrate cleavage was measured for 90 minutes at 37° C., with fluorescence at Excitation/Emission 350/450 nm measured every 5 minutes. DPP1 concentration was interpolated based on its activity relative to a standard curve of activated human recombinant DPP1 enzyme. Percent inhibition at 10 nM was calculated for each test article based on remaining DPP1 activity compared to enzyme activity in wells that received only vehicle control.

human DPP1 enzyme, sequence (P53634 25-134): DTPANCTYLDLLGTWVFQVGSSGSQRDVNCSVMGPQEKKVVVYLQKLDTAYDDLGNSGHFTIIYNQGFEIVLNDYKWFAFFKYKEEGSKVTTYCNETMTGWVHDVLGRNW
human DPP1 enzyme, sequence (P53634 231-394): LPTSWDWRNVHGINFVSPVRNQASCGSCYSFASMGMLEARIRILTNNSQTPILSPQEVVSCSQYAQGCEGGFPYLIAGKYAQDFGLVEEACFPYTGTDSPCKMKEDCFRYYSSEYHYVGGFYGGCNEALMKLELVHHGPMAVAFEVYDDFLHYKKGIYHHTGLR
human DPP1 enzyme, sequence (P53634 395-463): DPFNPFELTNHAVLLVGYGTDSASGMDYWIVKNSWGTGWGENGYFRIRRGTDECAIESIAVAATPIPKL
DPP1 in HL-60 cells, sequence (P53634 25-134): as the sequence (P53634 25-134) above
DPP1 in HL-60 cells, sequence (P53634 231-394): as the sequence (P53634 231-394) above
DPP1 in HL-60 cells, sequence (P53634 395-463): as the sequence (P53634 395-463) above

Compound | inhibition at 0.005 µM [1] [%] | inhibition at 0.01 µM [2] [%]
CO[C@@H](CN(C)C)C(=O)N[C@H](C#N)Cc1ccc(-c2ccc(CN3CCN(C)CC3)cc2)cc1F [Compound 323] | 76.5 to 93.9 | ≤ 40
CO[C@@H](CN(C)C)C(=O)N[C@H](C#N)Cc1ccc(-c2ccc3oc(=O)n(C)c3c2)cc1F [Compound 324] | 76.5 to 93.9 | 40 to 66.7
CO[C@@H](CN(C)C)C(=O)N[C@H](C#N)Cc1ccc(-c2ccc3c(n2)CCCN3)cc1F [Compound 325] | ≤ 76.5 | ≤ 40
COCCN(C)CCn1c(=O)oc2ccc(-c3ccc(C[C@@H](C#N)NC(=O)[C@H](CN(C)C)OC)c(F)c3)cc21 [Compound 326] | ≤ 76.5 | ≥ 66.7
CO[C@@H](CN(C)C)C(=O)N[C@H](C#N)Cc1ccc(-c2ccc3cnn(C)c3c2)cc1 [Compound 328] | ≤ 76.5 | ≤ 40
CO[C@@H](CN(C)C)C(=O)N[C@H](C#N)Cc1ccc(-c2ccc3nnn(C)c3c2)cc1 [Compound 329] | ≤ 76.5 | ≤ 40
CO[C@@H](CN(C)C)C(=O)N[C@H](C#N)Cc1ccc(-c2cnc3c(n2)CCCC3)cc1 [Compound 330] | ≤ 76.5 | ≤ 40
CO[C@@H](CN(C)C)C(=O)N[C@H](C#N)Cc1ccc(-c2ccc(S(=O)(=O)N3CCC3)cc2)cc1 [Compound 331] | ≤ 76.5 | ≤ 40
CO[C@@H](CN(C)C)C(=O)N[C@H](C#N)Cc1ccc(-c2ccc3cnn(C)c3c2)cc1F [Compound 332] | ≤ 76.5 | ≤ 40
CO[C@@H](CN(C)C)C(=O)N[C@H](C#N)Cc1ccc(-c2ccc3nnn(C)c3c2)cc1F [Compound 333] | 76.5 to 93.9 | 40 to 66.7
CO[C@@H](CN(C)C)C(=O)N[C@H](C#N)Cc1ccc(-c2cnc3c(n2)CCCC3)cc1F [Compound 334] | ≤ 76.5 | ≤ 40
CO[C@@H](CN(C)C)C(=O)N[C@H](C#N)Cc1ccc(-c2ccc(S(=O)(=O)N3CCC3)cc2)cc1F [Compound 335] | ≤ 76.5 | ≤ 40
CO[C@@H](CN(C)C)C(=O)N[C@H](C#N)Cc1cc2c(cc1F)-c1ccc(F)cc1CO2 [Compound 336] | ≤ 76.5 | ≤ 40
CN(C)C[C@H](O)C(=O)N[C@H](C#N)Cc1cc2c(cc1F)-c1ccc(C#N)cc1CO2 [Compound 338] | ≤ 76.5 | ≤ 40
CN(C)C[C@H](O)C(=O)NC(C#N)Cc1cc2c(cc1F)-c1cc3c(cc1CO2)oc(=O)n3C (stereo partly shown) [Compound 339] | ≤ 76.5 | ≤ 40
CN(C)C[C@H](O)C(=O)NC(C#N)Cc1cc2c(cc1F)-c1ccc3oc(=O)n(C)c3c1CO2 (stereo partly shown) [Compound 341] | ≤ 76.5 | ≤ 40
CN(C)C[C@H](O)C(=O)N[C@H](C#N)Cc1ccc(-c2ccc3c(c2)C2(CC3)CCN(C)CC2)cc1 [Compound 342] | ≤ 76.5 | 40 to 66.7
CN(C)C[C@H](O)C(=O)N[C@H](C#N)Cc1ccc(-c2ccc3c(c2)C2(CCCN(C)C2)C(=O)N3C)cc1 (stereo partly shown) [Compound 343] | ≤ 76.5 | ≤ 40
CN(C)CCn1c(=O)oc2ccc(-c3ccc(C[C@@H](C#N)NC(=O)[C@@H](O)CN(C)C)cc3)cc21 [Compound 344] | ≤ 76.5 | 40 to 66.7
Cc1cn2cc(-c3ccc(C[C@@H](C#N)NC(=O)[C@@H](O)CN(C)C)cc3)cc2c(C)n1 [Compound 345] | ≤ 76.5 | ≤ 40
CN(C)C[C@H](O)C(=O)N[C@H](C#N)Cc1ccc(-c2ccc3c(c2)C2(CN(C)C2)OC3=O)cc1 [Compound 346] | ≤ 76.5 | 40 to 66.7

Compound | inhibition at 0.005 µM [1] [%] | inhibition at 0.01 µM [2] [%]
CCN1C(=O)Cc2ccc(-c3ccc(C[C@@H](C#N)NC(=O)[C@@H](O)CN(C)C)cc3)cc21 [Compound 347] | ≤ 76.5 | ≤ 40
CN(C)C[C@H](O)C(=O)N[C@H](C#N)Cc1ccc(-c2ccc3c(c2)C2(CCN(C)C2)OC3=O)cc1 (stereo partly shown) [Compound 348] | ≤ 76.5 | 40 to 66.7
CN(C)C[C@H](O)C(=O)N[C@H](C#N)Cc1ccc(-c2ccc3cnn(C4CCN(C)CC4)c3c2)cc1 [Compound 349] | ≤ 76.5 | 40 to 66.7
CN(C)C[C@H](O)C(=O)N[C@H](C#N)Cc1ccc(-c2ccc3c(c2)C2(CCN(C4COC4)CC2)OC3)cc1 [Compound 350] | ≤ 76.5 | ≤ 40
CN(C)C[C@H](O)C(=O)N[C@H](C#N)Cc1ccc(-c2ccc3oc(=O)n(CCN4CCOCC4)c3c2)cc1 [Compound 351] | ≤ 76.5 | ≤ 40
CN(C)C[C@H](O)C(=O)N[C@H](C#N)Cc1ccc(-c2ccc(CN3CCN(C)CC3)cc2)cc1 [Compound 352] | ≤ 76.5 | ≤ 40
CN(C)C[C@H](O)C(=O)N[C@H](C#N)Cc1ccc(-c2ccc3oc(=O)n(C)c3c2)cc1 [Compound 353] | 76.5 to 93.9 | 40 to 66.7
CN(C)C[C@H](O)C(=O)N[C@H](C#N)Cc1ccc(-c2ccc3c(n2)CCCN3)cc1 [Compound 354] | ≤ 76.5 | ≤ 40
CN(C)C[C@H](O)C(=O)N[C@H](C#N)Cc1ccc(-c2ccc3c(c2)C2(CC3)CCN(C)CC2)cc1F [Compound 355] | ≤ 76.5 | ≥ 66.7
CN(C)C[C@H](O)C(=O)N[C@H](C#N)Cc1ccc(-c2ccc3c(c2)C2(CCCN(C)C2)C(=O)N3C)cc1F (stereo partly shown) [Compound 356] | 76.5 to 93.9 | 40 to 66.7
CN(C)CCn1c(=O)oc2ccc(-c3ccc(C[C@@H](C#N)NC(=O)[C@@H](O)CN(C)C)c(F)c3)cc21 [Compound 357] | ≤ 76.5 | ≥ 66.7
Cc1cn2cc(-c3ccc(C[C@@H](C#N)NC(=O)[C@@H](O)CN(C)C)c(F)c3)cc2c(C)n1 [Compound 358] | ≤ 76.5 | ≤ 40
CN(C)C[C@H](O)C(=O)N[C@H](C#N)Cc1ccc(-c2ccc3c(c2)C2(CN(C)C2)OC3=O)cc1F [Compound 359] | ≤ 76.5 | 40 to 66.7
CCN1C(=O)Cc2ccc(-c3ccc(C[C@@H](C#N)NC(=O)[C@@H](O)CN(C)C)c(F)c3)cc21 [Compound 360] | 76.5 to 93.9 | 40 to 66.7
CN(C)C[C@H](O)C(=O)N[C@H](C#N)Cc1ccc(-c2ccc3c(c2)C2(CCN(C)C2)OC3=O)cc1F (stereo partly shown) [Compound 361] | ≤ 76.5 | 40 to 66.7
CN(C)C[C@H](O)C(=O)N[C@H](C#N)Cc1ccc(-c2ccc3cnn(C4CCN(C)CC4)c3c2)cc1F [Compound 362] | ≤ 76.5 | ≥ 66.7
CN(C)C[C@H](O)C(=O)N[C@H](C#N)Cc1ccc(-c2ccc3c(c2)C2(CCN(C4COC4)CC2)OC3)cc1F [Compound 363] | ≤ 76.5 | 40 to 66.7
CN(C)C[C@H](O)C(=O)N[C@H](C#N)Cc1ccc(-c2ccc3oc(=O)n(CCN4CCOCC4)c3c2)cc1F [Compound 364] | ≤ 76.5 | 40 to 66.7
CN(C)C[C@H](O)C(=O)N[C@H](C#N)Cc1ccc(-c2ccc(CN3CCN(C)CC3)cc2)cc1F [Compound 365] | ≤ 76.5 | ≤ 40
CN(C)C[C@H](O)C(=O)N[C@H](C#N)Cc1ccc(-c2ccc3oc(=O)n(C)c3c2)cc1F [Compound 366] | 76.5 to 93.9 | 40 to 66.7

Reference: patent US20260008758A1, “LINEAR DIPEPTIDYL PEPTIDASE 1 INHIBITORS AND USES THEREOF” (Insmed Incorporated, priority 2024, published 2026)
